In patent US20230091042A1, “SMARCA2-VHL DEGRADERS” (AMGEN INC., priority 2020, published 2023):

Tests used:
SMARCA2 = biological target: T1, SMARCA2 (Homo sapiens, UniProt P51531); assay: SMARCA2 MSD assay in A375 cells (SMARCA2 degradation, 2 h); format: cell-based; settings: 2 h compound treatment, N/C = no curve; for DC50: read-out: A375 SMARCA2 MSD IC50 IP
T1 construct: endogenous in cells; host or cells: A375 cells (ATCC CRL-1619)
Description: (§1) SMARCA2 and SMARCA4 MSD Assays in A375 Cells:
A375 cells (ATCC® CRL-1619™) were cultured in RPMI 1640 Medium (ThermoFisher Scientific 11875093) containing 10% fetal bovine serum (ThermoFisher Scientific 16000044) and 1× penicillin-streptomycin-glutamine (ThermoFisher Scientific 10378016). Sixteen hours prior to compound treatment, cells were seeded in 96-well cell culture plates (Corning 3904) at a density of 2.5×10^5 cells/well (90 uL/well) and incubated at 37° C., 5% CO2. A 1:3 compound dose-response titration was diluted in growth media (1:20), added to appropriate wells of a cell culture plate (1:10) and then assay plates were incubated at 37° C., 5% CO2. After 2 h of compound treatment, cells were lysed in MSD lysis buffer (MSD R60TX-2) containing protease (Roche 04693116001) and phosphatase (Roche 04906837001) inhibitors.
. Plates were washed with 300 μL per well MSD wash buffer (MSD R61TX-1) between each step. Following the last incubation, plates were washed with MSD wash buffer then 150 uL of MSD read buffer (MSD R92TC-2) was added to each well. Plates were immediately read on a MSD plate reader (MSD Sector Imager 6000) and data was analyzed using a 4-parameter logistic model to calculate IC50 values.

SMARCA4 = biological target: T2, SMARCA4 (Homo sapiens, UniProt P51532); assay: SMARCA4 MSD assay in A375 cells (SMARCA4 degradation, 2 h); format: cell-based; settings: 2 h compound treatment, N/C = no curve
T2 construct: After 2 h of compound treatment, cells were lysed in MSD lysis buffer; endogenous in cells; host or cells: A375 cells (ATCC CRL-1619)
Description: as §1
A 1:3 compound dose-response titration was diluted in growth media (1:20), added to appropriate wells of a cell culture plate (1:10) and then assay plates were incubated at 37° C., 5% CO2.
Plates were washed with 300 μL per well MSD wash buffer (MSD R61TX-1) between each step. Following the last incubation, plates were washed with MSD wash buffer then 150 uL of MSD read buffer (MSD R92TC-2) was added to each well. Plates were immediately read on a MSD plate reader (MSD Sector Imager 6000) and data was analyzed using a 4-parameter logistic model to calculate IC50 values.

T1 sequence (P51531 whole entry): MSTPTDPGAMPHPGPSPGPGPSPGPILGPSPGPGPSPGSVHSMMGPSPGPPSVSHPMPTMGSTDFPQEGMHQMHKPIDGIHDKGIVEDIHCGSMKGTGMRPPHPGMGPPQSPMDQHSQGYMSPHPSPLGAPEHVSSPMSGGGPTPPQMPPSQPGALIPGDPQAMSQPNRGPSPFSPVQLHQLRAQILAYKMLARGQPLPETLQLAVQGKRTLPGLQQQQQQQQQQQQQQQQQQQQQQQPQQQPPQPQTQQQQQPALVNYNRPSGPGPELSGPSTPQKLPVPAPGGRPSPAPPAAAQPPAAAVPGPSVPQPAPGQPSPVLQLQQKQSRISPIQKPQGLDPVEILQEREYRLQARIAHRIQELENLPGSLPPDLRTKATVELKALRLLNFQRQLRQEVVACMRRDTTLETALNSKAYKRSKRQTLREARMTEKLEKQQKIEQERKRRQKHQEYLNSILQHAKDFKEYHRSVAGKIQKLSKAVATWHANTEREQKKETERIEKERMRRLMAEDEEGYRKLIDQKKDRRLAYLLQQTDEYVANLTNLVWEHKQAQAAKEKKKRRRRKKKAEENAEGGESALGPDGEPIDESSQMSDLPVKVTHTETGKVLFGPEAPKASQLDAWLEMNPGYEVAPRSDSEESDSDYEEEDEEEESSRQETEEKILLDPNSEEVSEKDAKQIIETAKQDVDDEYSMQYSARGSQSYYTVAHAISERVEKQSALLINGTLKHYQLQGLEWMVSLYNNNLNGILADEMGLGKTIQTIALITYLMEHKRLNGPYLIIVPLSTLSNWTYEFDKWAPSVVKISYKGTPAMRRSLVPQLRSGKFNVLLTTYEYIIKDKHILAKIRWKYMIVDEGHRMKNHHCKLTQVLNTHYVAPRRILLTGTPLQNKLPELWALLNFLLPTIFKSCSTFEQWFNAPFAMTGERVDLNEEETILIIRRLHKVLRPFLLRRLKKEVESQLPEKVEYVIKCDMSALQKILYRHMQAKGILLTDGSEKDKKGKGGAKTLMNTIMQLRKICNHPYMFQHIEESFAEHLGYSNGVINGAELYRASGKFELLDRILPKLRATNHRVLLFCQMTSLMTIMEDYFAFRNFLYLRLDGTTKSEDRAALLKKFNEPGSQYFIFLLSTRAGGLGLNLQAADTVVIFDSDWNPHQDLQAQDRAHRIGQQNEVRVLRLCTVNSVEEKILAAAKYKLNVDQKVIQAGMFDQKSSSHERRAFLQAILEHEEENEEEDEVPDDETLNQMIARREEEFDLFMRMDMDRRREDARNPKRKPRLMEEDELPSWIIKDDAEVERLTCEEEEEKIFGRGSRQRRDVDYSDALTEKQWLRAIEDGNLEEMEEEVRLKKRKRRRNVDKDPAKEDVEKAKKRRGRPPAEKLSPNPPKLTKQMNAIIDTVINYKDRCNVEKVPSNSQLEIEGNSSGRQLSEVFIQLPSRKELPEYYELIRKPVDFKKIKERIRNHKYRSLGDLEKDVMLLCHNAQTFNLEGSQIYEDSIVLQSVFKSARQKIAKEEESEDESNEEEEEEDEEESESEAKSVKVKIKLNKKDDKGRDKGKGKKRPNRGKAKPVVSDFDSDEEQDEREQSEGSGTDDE
T2 sequence (P51532 whole entry): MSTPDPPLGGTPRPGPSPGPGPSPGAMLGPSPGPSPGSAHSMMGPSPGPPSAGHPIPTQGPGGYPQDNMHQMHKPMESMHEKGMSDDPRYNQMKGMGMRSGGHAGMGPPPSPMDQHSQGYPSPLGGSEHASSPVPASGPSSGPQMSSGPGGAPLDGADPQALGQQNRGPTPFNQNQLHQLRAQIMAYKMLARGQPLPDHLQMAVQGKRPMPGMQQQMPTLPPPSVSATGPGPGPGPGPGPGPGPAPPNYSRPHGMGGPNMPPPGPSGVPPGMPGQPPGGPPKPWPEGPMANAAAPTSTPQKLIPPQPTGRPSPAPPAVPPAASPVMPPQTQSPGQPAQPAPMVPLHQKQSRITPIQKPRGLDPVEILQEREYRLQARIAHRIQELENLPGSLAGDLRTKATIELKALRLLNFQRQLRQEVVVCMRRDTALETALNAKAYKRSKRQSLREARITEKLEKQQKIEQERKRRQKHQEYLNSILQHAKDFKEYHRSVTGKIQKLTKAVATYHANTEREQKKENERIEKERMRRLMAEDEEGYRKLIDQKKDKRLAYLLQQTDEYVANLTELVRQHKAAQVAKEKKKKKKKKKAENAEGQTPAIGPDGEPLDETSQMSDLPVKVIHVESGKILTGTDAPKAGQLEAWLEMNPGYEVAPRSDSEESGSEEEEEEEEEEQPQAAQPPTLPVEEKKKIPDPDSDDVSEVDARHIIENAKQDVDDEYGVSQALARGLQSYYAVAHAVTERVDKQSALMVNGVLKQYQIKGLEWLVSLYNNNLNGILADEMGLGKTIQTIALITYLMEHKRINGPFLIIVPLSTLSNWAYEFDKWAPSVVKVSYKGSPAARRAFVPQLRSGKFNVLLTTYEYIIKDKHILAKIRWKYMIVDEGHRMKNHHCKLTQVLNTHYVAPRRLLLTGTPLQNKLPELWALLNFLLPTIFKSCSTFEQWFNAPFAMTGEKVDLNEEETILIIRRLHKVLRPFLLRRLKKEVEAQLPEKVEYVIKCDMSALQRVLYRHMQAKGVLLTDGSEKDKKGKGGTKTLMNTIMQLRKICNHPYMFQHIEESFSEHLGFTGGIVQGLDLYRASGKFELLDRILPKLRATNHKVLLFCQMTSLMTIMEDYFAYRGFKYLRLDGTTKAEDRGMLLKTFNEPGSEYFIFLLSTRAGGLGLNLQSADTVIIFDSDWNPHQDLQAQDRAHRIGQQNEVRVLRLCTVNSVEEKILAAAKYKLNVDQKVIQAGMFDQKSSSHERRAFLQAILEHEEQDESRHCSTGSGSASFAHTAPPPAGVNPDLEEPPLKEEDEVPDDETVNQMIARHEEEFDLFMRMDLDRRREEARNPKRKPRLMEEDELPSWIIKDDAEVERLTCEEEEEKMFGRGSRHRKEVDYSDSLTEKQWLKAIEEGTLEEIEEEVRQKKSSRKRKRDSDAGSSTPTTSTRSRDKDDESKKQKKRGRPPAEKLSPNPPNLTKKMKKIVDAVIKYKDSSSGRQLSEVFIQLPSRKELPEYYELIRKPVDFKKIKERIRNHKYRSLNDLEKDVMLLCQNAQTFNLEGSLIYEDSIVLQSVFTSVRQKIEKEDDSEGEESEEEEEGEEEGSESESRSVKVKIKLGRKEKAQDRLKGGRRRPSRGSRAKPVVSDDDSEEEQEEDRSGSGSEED

DC50 (SMARCA2) [nM]	A375 SMARCA4 MSD IC50 IP (SMARCA4)	SMILES	other results
110		Cc1ncsc1-c1ccc(CNC(=O)[C@@H]2C[C@@H](O)CN2C(=O)[C@@H](NC(=O)c2ccnc(N3CCN(c4cc(-c5ccccc5O)nnc4N)CC3)c2)C(C)(C)C)cc1 [Example 1, 2-(4-(3-Amino-6-(2-hydroxyphenyl)pyridazin-4-yl)piperazin-1-yl)-N—((S)-1-((2S,4R)-4-hydroxy-2-((4-(4-methylthiazol-5-yl)benzyl)carbamoyl)pyrrolidin-1-yl)-3,3-dimethyl-1-oxobutan-2-yl)isonicotinamide]	
120		Cc1ncsc1-c1ccc([C@H](C)NC(=O)[C@@H]2C[C@@H](O)CN2C(=O)[C@@H](NC(=O)c2cccc(N3CCN(c4cc(-c5ccccc5O)nnc4N)CC3)n2)C(C)(C)C)cc1 [Example 2, 6-(4-(3-Amino-6-(2-hydroxyphenyl)pyridazin-4-yl)piperazin-1-yl)-N—((S)-1-((2S,4R)-4-hydroxy-2-(((S)-1-(4-(4-methylthiazol-5-yl)phenyl)ethyl)carbamoyl)pyrrolidin-1-yl)-3,3-dimethyl-1-oxobutan-2-yl)picolinamide]	
43		Cc1ncsc1-c1ccc([C@H](C)NC(=O)[C@@H]2C[C@@H](O)CN2C(=O)[C@@H](NC(=O)c2ccnc(N3CCN(c4cc(-c5ccccc5O)nnc4N)CC3)c2)C(C)(C)C)cc1 [Example 3, 2-(4-(3-Amino-6-(2-hydroxyphenyl)pyridazin-4-yl)piperazin-1-yl)-N—((S)-1-((2S,4R)-4-hydroxy-2-(((S)-1-(4-(4-methylthiazol-5-yl)phenyl)ethyl)carbamoyl)pyrrolidin-1-yl)-3,3-dimethyl-1-oxobutan-2-yl)isonicotinamide]	
22		Cc1ncsc1-c1ccc([C@H](C)NC(=O)[C@@H]2C[C@@H](O)CN2C(=O)[C@@H](NC(=O)c2cccc(N3CCN(c4cc(-c5ccccc5O)nnc4N)CC3)c2)C(C)(C)C)cc1 [Example 4, (2S,4R)-1-((S)-2-(3-(4-(3-Amino-6-(2-hydroxyphenyl)pyridazin-4-yl)piperazin-1-yl)benzamido)-3,3-dimethylbutanoyl)-4-hydroxy-N—((S)-1-(4-(4-methylthiazol-5-yl)phenyl)ethyl)pyrrolidine-2-carboxamide]	
150		Cc1ncsc1-c1ccc([C@H](C)NC(=O)[C@@H]2C[C@@H](O)CN2C(=O)[C@@H](NC(=O)c2csc(N3CCN(c4cc(-c5ccccc5O)nnc4N)CC3)n2)C(C)(C)C)cc1 [Example 5, 2-(4-(3-Amino-6-(2-hydroxyphenyl)pyridazin-4-yl)piperazin-1-yl)-N—((S)-1-((2S,4R)-4-hydroxy-2-(((S)-1-(4-(4-methylthiazol-5-yl)phenyl)ethyl)carbamoyl)pyrrolidin-1-yl)-3,3-dimethyl-1-oxobutan-2-yl)thiazole-4-carboxamide]	
190		Cc1ncsc1-c1ccc([C@H](C)NC(=O)[C@@H]2C[C@@H](O)CN2C(=O)[C@@H](NC(=O)c2ccc(N3CCN(c4cc(-c5ccccc5O)nnc4N)CC3)s2)C(C)(C)C)cc1 [Example 6, (2S,4R)-1-((S)-2-(5-(4-(3-Amino-6-(2-hydroxyphenyl)pyridazin-4-yl)piperazin-1-yl)thiophene-2-carboxamido)-3,3-dimethylbutanoyl)-4-hydroxy-N—((S)-1-(4-(4-methylthiazol-5-yl)phenyl)ethyl)pyrrolidine-2-carboxamide]	
	N/C	Cc1ncsc1-c1ccc([C@H](C)NC(=O)[C@@H]2C[C@@H](O)CN2C(=O)[C@@H](NC(=O)c2ccc(N3CCN(c4cc(-c5ccccc5O)nnc4N)CC3)nc2)C(C)(C)C)cc1 [Example 7, 6-(4-(3-Amino-6-(2-hydroxyphenyl)pyridazin-4-yl)piperazin-1-yl)-N—((S)-1-((2S,4R)-4-hydroxy-2-(((S)-1-(4-(4-methylthiazol-5-yl)phenyl)ethyl)carbamoyl)pyrrolidin-1-yl)-3,3-dimethyl-1-oxobutan-2-yl)nicotinamide]	A375 SMARCA2 MSD IC50 IP (SMARCA2): N/C
	N/C	Cc1ncsc1-c1ccc([C@H](C)NC(=O)[C@@H]2C[C@@H](O)CN2C(=O)[C@@H](NC(=O)Cc2ccnc(N3CCN(c4cc(-c5ccccc5O)nnc4N)CC3)c2)C(C)(C)C)cc1 [Example 8, (2S,4R)-1-((S)-2-(2-(2-(4-(3-Amino-6-(2-hydroxyphenyl)pyridazin-4-yl)piperazin-1-yl)pyridin-4-yl)acetamido)-3,3-dimethylbutanoyl)-4-hydroxy-N—((S)-1-(4-(4-methylthiazol-5-yl)phenyl)ethyl)pyrrolidine-2-carboxamide]	A375 SMARCA2 MSD IC50 IP (SMARCA2): N/C
	N/C	Cc1ncsc1-c1ccc([C@H](C)NC(=O)[C@@H]2C[C@@H](O)CN2C(=O)[C@@H](NC(=O)CCc2ccnc(N3CCN(c4cc(-c5ccccc5O)nnc4N)CC3)c2)C(C)(C)C)cc1 [Example 9, (2S,4R)-1-((S)-2-(3-(2-(4-(3-Amino-6-(2-hydroxyphenyl)pyridazin-4-yl)piperazin-1-yl)pyridin-4-yl)propanamido)-3,3-dimethylbutanoyl)-4-hydroxy-N—((S)-1-(4-(4-methylthiazol-5-yl)phenyl)ethyl)pyrrolidine-2-carboxamide]	A375 SMARCA2 MSD IC50 IP (SMARCA2): N/C
250		Cc1ncsc1-c1ccc([C@H](C)NC(=O)[C@@H]2C[C@@H](O)CN2C(=O)[C@@H](NC(=O)c2cccc(N3CCN(c4nc(-c5ccccc5O)nnc4N)CC3)n2)C(C)(C)C)cc1 [Example 10, 6-(4-(6-Amino-3-(2-hydroxyphenyl)-1,2,4-triazin-5-yl)piperazin-1-yl)-N—((S)-1-((2S,4R)-4-hydroxy-2-(((S)-1-(4-(4-methylthiazol-5-yl)phenyl)ethyl)carbamoyl)pyrrolidin-1-yl)-3,3-dimethyl-1-oxobutan-2-yl)picolinamide]	
350	N/C	Cc1ncsc1-c1ccc([C@H](C)NC(=O)[C@@H]2C[C@@H](O)CN2C(=O)[C@@H](NC(=O)c2ccnc(N3CCN(c4cnnc(-c5ccccc5O)c4)CC3)c2)C(C)(C)C)cc1 [Example 11, N—((S)-1-((2S,4R)-4-Hydroxy-2-(((S)-1-(4-(4-methylthiazol-5-yl)phenyl)ethyl)carbamoyl)pyrrolidin-1-yl)-3,3-dimethyl-1-oxobutan-2-yl)-2-(4-(6-(2-hydroxyphenyl)pyridazin-4-yl)piperazin-1-yl)isonicotinamide]	
250		Cc1ncsc1-c1ccc([C@H](C)NC(=O)[C@@H]2C[C@@H](O)CN2C(=O)[C@@H](NC(=O)CN2CCN(c3cc(-c4ccccc4O)nnc3N)CC2)C(C)(C)C)cc1 [compound 1, (2S,4R)-1-((S)-2-(2-(4-(3-Amino-6-(2-hydroxyphenyl)pyridazin-4-yl)piperazin-1-yl)acetamido)-3,3-dimethylbutanoyl)-4-hydroxy-N—((S)-1-(4-(4-methylthiazol-5-yl)phenyl)ethyl)pyrrolidine-2-carboxamide, reference compound]	DC50 (SMARCA4; read-out: A375 SMARCA4 MSD IC50 IP): 840 nM
420		Cc1ncsc1-c1ccc([C@H](C)NC(=O)[C@@H]2C[C@@H](O)CN2C(=O)[C@@H](NC(=O)CN2CCN(c3cc(-c4cccc(F)c4O)nnc3N)CC2)C(C)(C)C)cc1 [compound 2, (2S,4R)-1-((S)-2-(2-(4-(3-Amino-6-(3-fluoro-2-hydroxyphenyl)pyridazin-4-yl)piperazin-1-yl)acetamido)-3,3-dimethylbutanoyl)-4-hydroxy-N—((S)-1-(4-(4-methylthiazol-5-yl)phenyl)ethyl)pyrrolidine-2-carboxamide, reference compound]	
